Test system: colonies of epithelial cells of head and neck squamous carcinoma
Experiment: ex vivo colony formation assay of collagenase-digested tumor samples, epithelial colonies counted after cytokeratin staining
Type: cell-based, human
Conditions: for Range from / Range to: concentrations with log-linear relation to response; for Range from / Range to / Cut-off concentrations Sample 1 / Cut-off concentrations Sample 2 / Cut-off concentrations Sample 3 / IC50 Sample 1 / IC50 Sample 2 / IC50 Sample 3: docetaxel (TPL = 0.55 µmol/l), 72 h
Method: Thereafter the tumors which usually have a size of about 0.1 to 1 ml were mechanically disintegrated by mincing to tissue pats of about 0.1 to 10 mm^3 and immersed each in 30 ml of pre-warmed riboflavin-free RPMI 1640 medium without phenol red and containing 14.5 mmol/l HEPES, 13.5 mmol/l NaHCO3, stabilized glutamine, 10% (v/v) fetal calf serum, the antibiotics penicillin, streptomycin and amikacin, as well as the antimycotic nystatin. The tumor cells were always handled at room temperature or warmer and never exposed to light other than the light of a sodium discharge lamp with an emission wavelength of 589 nm. Immediately after mechanical disintegration 120 U/ml collagenase type IV of Clostridium histolyticum (EC 3.4.24.3, type IV) were added and the mixture incubated for 16 h at 36.5°C in brown glass bottles in an incubator. To ensure optimal incubation conditions, the CO2 concentration therein was constantly kept at 3.5% and relative humidity at 95%. Following enzymatic disintegration by collagenase the digest was centrifuged for 10 min at 1200 rpm, the resulting pellets were carefully re-suspended in fresh culture medium supplemented as described but without collagenase. […] Ex-vivo testing was performed 72 h using the same culture conditions as during the collagenase digest.
After 72 hours of incubation, the wells were rinsed twice with phosphate buffered saline, pH 7.8, and the adherent cells and cell colonies were fixed with ice-cold 90% methanol for 10 min. Fixed specimens were exposed for 5 min to PBS/ 0.1% Tween-20® (Polysorbate 20) before preincubation with 1% serum in PBS/ 0.1% Tween-20 for 45 min, followed by overnight incubation at 4°C with the primary antibody (anti-cytokeratin; SantaCruz sc-8018, C11) diluted 1:400 in PBS/ 0.1% Tween-20 supplemented with 0.2 % serum. After three rinses for 10 min each with PBS/ 0.2 % Serum/ 0.1% Tween-20, specimens were incubated for another 2 h at room temperature in the dark with the secondary antibody (anti-mouse IgG coupled with Cy2 or Cy3 fluorescence dye, Jackson ImmunoResearch, Cambs, UK) in a 1:400 dilution in PBS/ 0.2 % Serum/ 0.1 % Tween-20 followed by three rinses with PBS/ 0.2 % Serum/ 0.1 % Tween-20, and a final rinse with distilled water for 2 min. The test plate was air dried, and fluorescence signals were imaged with the Zeiss Axiovert 200M inverted fluorescence microscope (Zeiss, Jena, Germany) using Zeiss filter sets 44 and 43HE for Cy2 and Cy3, respectively. The evaluation of the colonies is possible using every given fluorescence microscope but is eased by the use of dedicated filter sets. […] The test is utilized by separately counting of colonies of different types (stained epithelial, unstained stromal cells), the numbers of colonies in the different treatments (e.g. doses of radiation or concentrations of chemotherapeutics) are recorded and kept for further analysis.
(§1) Freshly resected probes of head and neck squamous carcinoma of 14 untreated patients were investigated and treated if not stated otherwise as described in example 1. Three fragments were each excised from different tumor areas, weighed, and treated with collagenase as outlined in Example 1.
1.5 mg of tumor was applied to a well.
as §1, with “Example 1. Collagenase digests were exposed to concentrations in the range from 0.5- to 32-fold the tolerated plasma levels (TPL) of docetaxel: (TPL = 0.55 µmol/l).” for “Example 1.”

CC(=O)O[C@@]12CO[C@@H]1C[C@H](O)[C@@]1(C)C(=O)[C@H](O)C3=C(C)[C@@H](OC(=O)[C@H](O)[C@@H](NC(=O)OC(C)(C)C)c4ccccc4)C[C@@](O)([C@@H](OC(=O)c4ccccc4)[C@H]21)C3(C)C [docetaxel]
Range from (Tumor-No. 1): 2.0 n-fold TPL | Range to (Tumor-No. 1): 8.0 n-fold TPL | Range from (Tumor-No. 2): 0.5 n-fold TPL | Range to (Tumor-No. 2): 32.0 n-fold TPL | Range from (Tumor-No. 3): 2.0 n-fold TPL | Range to (Tumor-No. 3): 32.0 n-fold TPL | Range from (Tumor-No. 4): 4.0 n-fold TPL | Range to (Tumor-No. 4): 32.0 n-fold TPL | Range from (Tumor-No. 5): 0.5 n-fold TPL | Range to (Tumor-No. 5): 32.0 n-fold TPL | Range from (Tumor-No. 6): 2.0 n-fold TPL | Range to (Tumor-No. 6): 32.0 n-fold TPL | Range from (Tumor-No. 7): 2.0 n-fold TPL | Range to (Tumor-No. 7): 32.0 n-fold TPL | Range from (Tumor-No. 8): 1.0 n-fold TPL | Range to (Tumor-No. 8): 32.0 n-fold TPL | Range from (Tumor-No. 9): 0.5 n-fold TPL | Range to (Tumor-No. 9): 32.0 n-fold TPL | effect on number of epithelial colonies at low concentrations (concentrations ≤ TPL, seven tumors (No. 2, 3, 4, 5, 6, 8 and 9)): hormesis | Cut-off concentrations Sample 1 (Tumor-No. 1): 8 n-fold TPL | Cut-off concentrations Sample 2 (Tumor-No. 1): 8 n-fold TPL | Cut-off concentrations Sample 3 (Tumor-No. 1): 8 n-fold TPL | IC50 Sample 1 (Tumor-No. 1): 4.565 n-fold TPL | IC50 Sample 2 (Tumor-No. 1): 4.718 n-fold TPL | IC50 Sample 3 (Tumor-No. 1): 5.040 n-fold TPL | Cut-off concentrations Sample 1 (Tumor-No. 2): X (not more than 5 colonies at most have appeared at the highest dose rate) | Cut-off concentrations Sample 2 (Tumor-No. 2): X (not more than 5 colonies at most have appeared at the highest dose rate) | Cut-off concentrations Sample 3 (Tumor-No. 2): X (not more than 5 colonies at most have appeared at the highest dose rate) | IC50 Sample 1 (Tumor-No. 2): 1.486 n-fold TPL | IC50 Sample 2 (Tumor-No. 2): 0.579 n-fold TPL | IC50 Sample 3 (Tumor-No. 2): 1.157 n-fold TPL | Cut-off concentrations Sample 1 (Tumor-No. 3): X (not more than 5 colonies at most have appeared at the highest dose rate) | Cut-off concentrations Sample 2 (Tumor-No. 3): X (not more than 5 colonies at most have appeared at the highest dose rate) | Cut-off concentrations Sample 3 (Tumor-No. 3): X (not more than 5 colonies at most have appeared at the highest dose rate) | IC50 Sample 1 (Tumor-No. 3): 16.404 n-fold TPL | IC50 Sample 2 (Tumor-No. 3): 10.711 n-fold TPL | IC50 Sample 3 (Tumor-No. 3): 19.173 n-fold TPL | Cut-off concentrations Sample 1 (Tumor-No. 4): XX (more than 5 colonies have appeared at the highest dose rate) | Cut-off concentrations Sample 2 (Tumor-No. 4): X (not more than 5 colonies at most have appeared at the highest dose rate) | Cut-off concentrations Sample 3 (Tumor-No. 4): XX (more than 5 colonies have appeared at the highest dose rate) | IC50 Sample 1 (Tumor-No. 4): 27.819 n-fold TPL | IC50 Sample 3 (Tumor-No. 4): 23.393 n-fold TPL | Cut-off concentrations Sample 1 (Tumor-No. 5): X (not more than 5 colonies at most have appeared at the highest dose rate) | Cut-off concentrations Sample 2 (Tumor-No. 5): XX (more than 5 colonies have appeared at the highest dose rate) | Cut-off concentrations Sample 3 (Tumor-No. 5): X (not more than 5 colonies at most have appeared at the highest dose rate) | IC50 Sample 1 (Tumor-No. 5): 3.891 n-fold TPL | IC50 Sample 3 (Tumor-No. 5): 9.987 n-fold TPL | Cut-off concentrations Sample 1 (Tumor-No. 6): X (not more than 5 colonies at most have appeared at the highest dose rate) | Cut-off concentrations Sample 2 (Tumor-No. 6): X (not more than 5 colonies at most have appeared at the highest dose rate) | Cut-off concentrations Sample 3 (Tumor-No. 6): X (not more than 5 colonies at most have appeared at the highest dose rate) | IC50 Sample 1 (Tumor-No. 6): 8.208 n-fold TPL | IC50 Sample 2 (Tumor-No. 6): 6.690 n-fold TPL | IC50 Sample 3 (Tumor-No. 6): 8.404 n-fold TPL | Cut-off concentrations Sample 1 (Tumor-No. 7): 32 n-fold TPL | Cut-off concentrations Sample 2 (Tumor-No. 7): 32 n-fold TPL | Cut-off concentrations Sample 3 (Tumor-No. 7): 32 n-fold TPL | IC50 Sample 1 (Tumor-No. 7): 3.616 n-fold TPL | IC50 Sample 2 (Tumor-No. 7): 3.629 n-fold TPL | IC50 Sample 3 (Tumor-No. 7): 2.692 n-fold TPL | Cut-off concentrations Sample 1 (Tumor-No. 8): 32 n-fold TPL | Cut-off concentrations Sample 2 (Tumor-No. 8): 32 n-fold TPL | Cut-off concentrations Sample 3 (Tumor-No. 8): X (not more than 5 colonies at most have appeared at the highest dose rate) | IC50 Sample 1 (Tumor-No. 8): 6.709 n-fold TPL | IC50 Sample 3 (Tumor-No. 8): 5.282 n-fold TPL | Cut-off concentrations Sample 1 (Tumor-No. 9): X (not more than 5 colonies at most have appeared at the highest dose rate) | Cut-off concentrations Sample 2 (Tumor-No. 9): X (not more than 5 colonies at most have appeared at the highest dose rate) | Cut-off concentrations Sample 3 (Tumor-No. 9): X (not more than 5 colonies at most have appeared at the highest dose rate) | IC50 Sample 1 (Tumor-No. 9): 6.964 n-fold TPL | IC50 Sample 2 (Tumor-No. 9): 7.495 n-fold TPL
